Patent US20120225909A1, “INDAZOLE ANALOG” (priority 2009, published 2012)
Like-named read-outs stand apart in the source and are kept apart here.

Tests used:
[1] = biological target: T1, human β3-adrenergic receptor (Homo sapiens, UniProt P13945); test: Test Case 1-B: human β3-adrenergic receptor agonist activity (cAMP-Screen, 96-well); format: cell-based
T1 construct: A full-length human β3 gene is obtained from a human genomic library (made by Clontech) using this as the probe; expressed in transfected cells; host or cells: CHO (Chinese hamster ovary) cells, pcDNA3
T1 sequence (P13945 whole entry): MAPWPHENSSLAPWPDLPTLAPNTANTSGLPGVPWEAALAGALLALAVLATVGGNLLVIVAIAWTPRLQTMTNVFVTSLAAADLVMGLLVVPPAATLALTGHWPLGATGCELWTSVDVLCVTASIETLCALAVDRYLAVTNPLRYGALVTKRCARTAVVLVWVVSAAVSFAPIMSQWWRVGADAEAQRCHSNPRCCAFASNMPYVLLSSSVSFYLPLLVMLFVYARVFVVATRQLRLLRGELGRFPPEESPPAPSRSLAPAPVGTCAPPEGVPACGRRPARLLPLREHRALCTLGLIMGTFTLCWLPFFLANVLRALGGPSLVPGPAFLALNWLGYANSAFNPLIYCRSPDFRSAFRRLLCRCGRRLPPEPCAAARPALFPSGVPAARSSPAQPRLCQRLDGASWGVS
Outline: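 CHO cells stably transfected with full-length human β3 gene, serum-starved 15 min, then exposed to serially diluted compound in Ham's F-12 with 100 mmol/L HEPES and 1 mmol/L IBMX (diluent concentrations) for 30 min. Cells lysed 30 min at 37 °C; cAMP quantified by cAMP-Screen immunoassay.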

[2] = biological target: T2, human β1-adrenergic receptor (Homo sapiens, UniProt P08588); test: Test Case 2-B: human β1-adrenergic receptor agonist activity; format: cell-based; details: read-out: β1 receptor I.A.
T2 construct: expressed in transfected cells; host or cells: CHO (Chinese hamster ovary) cells, pcDNA3
T2 sequence (P08588 whole entry): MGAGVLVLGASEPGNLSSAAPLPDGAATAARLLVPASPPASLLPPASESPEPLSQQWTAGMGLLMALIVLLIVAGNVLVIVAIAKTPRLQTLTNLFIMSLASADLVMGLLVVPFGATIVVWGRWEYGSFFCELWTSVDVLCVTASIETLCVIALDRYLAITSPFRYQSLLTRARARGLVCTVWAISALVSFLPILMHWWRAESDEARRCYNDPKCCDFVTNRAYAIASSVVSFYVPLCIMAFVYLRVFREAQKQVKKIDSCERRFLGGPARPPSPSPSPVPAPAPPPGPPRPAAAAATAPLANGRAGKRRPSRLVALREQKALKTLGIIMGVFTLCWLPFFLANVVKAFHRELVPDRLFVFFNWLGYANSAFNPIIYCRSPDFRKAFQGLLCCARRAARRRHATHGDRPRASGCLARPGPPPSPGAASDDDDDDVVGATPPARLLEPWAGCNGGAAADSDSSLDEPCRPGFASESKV
Method: Measurement of Human β1-Adrenergic Receptor Agonist Activity
The human β1-adrenergic receptor agonist activity is measured by the same method as in Test Case 1-B using CHO (Chinese hamster ovary) cells transfected by a human β1 gene inserted in pcDNA3 (Invitrogen).

[3] = test system: common marmoset isolated bladder smooth muscle; test: Test Case 7: common marmoset isolated bladder smooth muscle relaxation test; details: KCl 40 mmol/L contracted marmoset bladder, papaverine 10^−4 mol/L relaxation = 100%
Method: Common Marmoset Isolated Bladder Smooth Muscle Relaxation Test
After sacrificing common marmosets (Japan CLEA) by exsanguination, they are laparotomized and the urinary bladder is removed. […] The specimens are loaded with one gram of resting tension and stabilized for 30 or more minutes. After the resting tension of the specimen has stabilized, a final concentration of 40 mmol/L of KCl is added repeatedly, and it is confirmed that the contraction in response to KCl has basically become constant. […] Taking that relaxation response as 100%, the relaxation rate (%) at test compound concentrations of […] is calculated.

[4] = test system: Male C57BL/6 Cr mice; test: Test Case 10: mouse piloerection test; format: in vivo; details: 10 mg/kg i.v.
[5] = biological target: T3, human α1A-adrenergic receptor (Homo sapiens, UniProt P35348); test: Test Case 4-A: human α1A-adrenergic receptor agonist activity (HEK293, Ca flux, Fura-2); format: cell-based; set-up: expressed in transfected cells; host or cells: HEK293 cells, pcDNA3.1
T3 sequence (P35348 1-466): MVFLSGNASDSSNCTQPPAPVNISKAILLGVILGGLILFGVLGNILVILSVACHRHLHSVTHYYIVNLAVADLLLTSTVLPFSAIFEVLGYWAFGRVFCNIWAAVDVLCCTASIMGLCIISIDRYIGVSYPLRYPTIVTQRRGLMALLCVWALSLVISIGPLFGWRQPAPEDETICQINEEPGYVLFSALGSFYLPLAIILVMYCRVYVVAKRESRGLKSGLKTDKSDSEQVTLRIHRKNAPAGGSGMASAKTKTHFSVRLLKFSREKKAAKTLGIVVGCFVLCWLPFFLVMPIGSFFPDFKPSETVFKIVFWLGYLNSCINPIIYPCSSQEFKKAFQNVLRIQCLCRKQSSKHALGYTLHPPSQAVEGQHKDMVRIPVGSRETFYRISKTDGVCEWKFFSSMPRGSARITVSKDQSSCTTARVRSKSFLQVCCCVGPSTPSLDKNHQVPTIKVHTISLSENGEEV
Outline: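 Fura-2AM-loaded HEK293 cells transfected with human α1A were preincubated for 180 s. Compound (sample plate 10^−5 to 10^−12 M) was added after ~30 s of 340/380 nm excitation ratio reading (500 nm emission, 2-s intervals), followed by 270 s more reading. Ca flux is the peak height: maximum ratio after addition minus the pre-addition ratio.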

[6] = 0.5 h; read-out: β3 receptor I.A.
[7] = HEK293; read-out: α1A receptor I.A.

Row | SMILES | Emax ([1]; 0.5 h, read-out: β3 receptor I.A.) [%] | EC50 ([1]; Test Case 1-B; CHO cells, cAMP) [nM] | Emax [2] [%] | relaxant activity (%) 10^−4M [3] [%] | relaxant activity (%) 10^−5M [3] [%] | number of experimental animals matching Score 0 (no piloerection) ([4]; n=4, observation time 5 min) | number of experimental animals matching Score 0 (no piloerection) ([4]; n=4, observation time 15 min) | number of experimental animals matching Score 0.5 ([4]; n=4, observation time 15 min) | number of experimental animals matching Score 0 (no piloerection) ([4]; n=4, observation time 30 min) | number of experimental animals matching Score 0.5 ([4]; n=4, observation time 30 min) | number of experimental animals matching Score 0 (no piloerection) ([4]; n=4, observation time 60 min) | Emax ([5]; HEK293, read-out: α1A receptor I.A.) [%] | Emax [1, 6] [%] | number of experimental animals matching Score 0.5 ([4]; n=4, observation time 60 min) | Emax [5, 7] [%]
1 | Cc1n[nH]c2cc(OCCNC[C@H](O)c3cccc(NS(=O)(=O)C4CCC4)c3)ccc12 [ex3, (R)—N-(3-(1-hydroxy-2-(2-(3-methylindazol-6-yloxy)ethylamino)ethyl)phenyl)cyclobutanesulfonamide] | 105 | 17 | 4 | 63.2 | 36.6 | 4 | 3 | 1 | 3 | 1 | 4 | 0 |  |  | 
2 | O=S(=O)(Nc1cccc([C@@H](O)CNCCOc2ccc3c(OC(F)F)n[nH]c3c2)c1)C1CC1 [ex4, (R)—N-(3-(2-(2-(3-(difluoromethoxy)-indazol-6-yloxy)ethylamino)-1-hydroxyethyl)phenyl)cyclopropanesulfonamide] |  | 38 | 2 | 53.7 | 30.1 | 4 | 4 |  | 3 | 1 | 3 |  | 77 | 1 | 0
3 | Cc1n[nH]c2cc(OCCNC[C@H](O)c3cccc(NS(=O)(=O)c4ccccc4F)c3)ccc12 [ex235, (R)-2-fluoro-N-(3-(1-hydroxy-2-(2-(3-methylindazol-6-yloxy)ethylamino)ethyl)phenyl)benzenesulfonamide] |  | 28 | 16 | 55.3 | 24.3 | 4 | 4 |  | 4 |  | 4 |  | 113 |  | 0
